Measured values taken from ChEMBL document CHEMBL4033647, “Novel coumarin- and quinolinone-based polycycles as cell division cycle 25-A and -C phosphatases inhibitors induce proliferation arrest and apoptosis in cancer cells” (Eur J Med Chem, 2017).
Activity calls are given as the source filed them. The calls are words filed in the database; no cut-off is given here.

Key:
A-431 [1] = assay: Decrease in CDC25C protein expression level in human A431 cell extract at 50 uM after 24 hrs by Western blot analysis; format: functional, cell-based
[2] = target: T1, M-phase inducer phosphatase 1 (Homo sapiens, UniProt P30304); assay: Inhibition of recombinant human full length GST-tagged CDC25A expressed in Escherichia coli BL21-DE3 pLysS using 3-O-methylfluorescein phosphate as substrate after 2 hrs by fluorimetric analysis
T1 sequence (P30304 whole entry): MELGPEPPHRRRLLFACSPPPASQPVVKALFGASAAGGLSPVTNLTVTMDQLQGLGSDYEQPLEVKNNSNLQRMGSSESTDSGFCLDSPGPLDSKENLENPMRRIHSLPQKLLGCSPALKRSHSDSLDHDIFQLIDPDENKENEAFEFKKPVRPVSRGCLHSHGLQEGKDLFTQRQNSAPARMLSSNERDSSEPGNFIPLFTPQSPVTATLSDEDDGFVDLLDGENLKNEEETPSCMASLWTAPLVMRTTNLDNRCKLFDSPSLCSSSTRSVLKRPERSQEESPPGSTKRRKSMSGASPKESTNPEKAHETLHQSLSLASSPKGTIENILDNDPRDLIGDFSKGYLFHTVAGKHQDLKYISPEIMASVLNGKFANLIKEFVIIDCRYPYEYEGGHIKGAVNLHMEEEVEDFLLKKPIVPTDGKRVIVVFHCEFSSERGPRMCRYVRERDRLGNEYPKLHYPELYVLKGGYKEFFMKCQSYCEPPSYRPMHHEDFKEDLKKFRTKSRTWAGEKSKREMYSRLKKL

[3] = target: T2, M-phase inducer phosphatase 3 (Homo sapiens, UniProt P30307); assay: Inhibition of recombinant human full length GST-tagged CDC25C expressed in Escherichia coli BL21-DE3 pLysS using 3-O-methylfluorescein phosphate as substrate after 2 hrs by fluorimetric analysis
T2 sequence (P30307 whole entry): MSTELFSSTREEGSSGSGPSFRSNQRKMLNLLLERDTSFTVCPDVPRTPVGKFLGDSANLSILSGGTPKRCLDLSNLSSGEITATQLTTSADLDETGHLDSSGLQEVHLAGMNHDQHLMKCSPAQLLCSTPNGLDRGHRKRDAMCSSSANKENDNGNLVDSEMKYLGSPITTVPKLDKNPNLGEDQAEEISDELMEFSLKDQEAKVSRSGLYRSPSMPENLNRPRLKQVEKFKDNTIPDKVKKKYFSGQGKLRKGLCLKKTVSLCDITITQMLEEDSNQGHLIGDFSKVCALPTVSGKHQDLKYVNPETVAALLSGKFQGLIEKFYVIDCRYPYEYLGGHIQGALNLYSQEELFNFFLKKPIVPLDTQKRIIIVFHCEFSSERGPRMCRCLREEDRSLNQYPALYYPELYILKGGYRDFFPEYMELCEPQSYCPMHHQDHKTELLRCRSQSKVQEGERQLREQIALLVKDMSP

A549 = assay: Cytotoxicity against human A549 cells assessed as reduction in cell viability after 72 hrs by MTT assay; format: functional, cell-based; settings: A549, 72 h
MCF7 = assay: Cytotoxicity against human MCF7 cells assessed as reduction in cell viability after 72 hrs by MTT assay; format: functional, cell-based; settings: MCF7, 72 h
PC-3 = assay: Cytotoxicity against human PC3 cells assessed as reduction in cell viability after 72 hrs by MTT assay; format: functional, cell-based; settings: PC-3, 72 h
[4] = Cytotoxicity against human U373n cells assessed as reduction in cell viability after 72 hrs by MTT assay; format: functional, cell-based
Hs 683 = assay: Cytotoxicity against human Hs683 cells assessed as reduction in cell viability after 72 hrs by MTT assay; format: functional, cell-based; settings: Hs 683, 72 h
SK-MEL-28 = assay: Cytotoxicity against human SK-MEL-28 cells assessed as reduction in cell viability after 72 hrs by MTT assay; format: functional, cell-based; settings: SK-MEL-28, 72 h
A-431 [5] = assay: Cytotoxicity against human A431 cells assessed as reduction in cell viability after 24 hrs by MTT assay; format: functional, cell-based; settings: A-431, 24 h
A-431 [6] = assay: Cell cycle arrest in human A431 cells assessed as accumulation at G1 phase at 10 uM after 24 hrs by propidium iodide staining based flow cytometric analysis (reference value: 53.04%); format: functional
A-431 [7] = assay: Cell cycle arrest in human A431 cells assessed as accumulation at G1 phase at 50 uM after 24 hrs by propidium iodide staining based flow cytometric analysis (reference value: 53.04%); format: functional
A-431 [8] = assay: Cell cycle arrest in human A431 cells assessed as accumulation at S phase at 10 uM after 24 hrs by propidium iodide staining based flow cytometric analysis (reference value: 17.33%); format: functional
A-431 [9] = assay: Cell cycle arrest in human A431 cells assessed as accumulation at S phase at 50 uM after 24 hrs by propidium iodide staining based flow cytometric analysis (reference value: 17.33%); format: functional
A-431 [10] = assay: Cell cycle arrest in human A431 cells assessed as accumulation at G2/M phase at 10 uM after 24 hrs by propidium iodide staining based flow cytometric analysis (reference value: 26.23%); format: functional
A-431 [11] = assay: Cell cycle arrest in human A431 cells assessed as accumulation at G2/M phase at 50 uM after 24 hrs by propidium iodide staining based flow cytometric analysis (reference value: 26.23%); format: functional
A-431 [12] = assay: Cell cycle arrest in human A431 cells assessed as accumulation at subG1 phase at 10 uM after 24 hrs by propidium iodide staining based flow cytometric analysis (reference value: 3.40%); format: functional
A-431 [13] = assay: Cell cycle arrest in human A431 cells assessed as accumulation at subG1 phase at 50 uM after 24 hrs by propidium iodide staining based flow cytometric analysis (reference value: 3.40%); format: functional
A-431 [14] = assay: Effect on CDC25C splice variant protein expression in human A431 cell extract at 50 uM after 24 hrs by Western blot analysis; format: functional, cell-based
[15] = target: T3, M-phase inducer phosphatase 3 (Homo sapiens) (UniProt P30307); assay: Inhibition of CDC25C in human A431 cells assessed as increase in phosphorylation of CDK1 at Thr14/Tyr15 residues at 50 uM after 24 hrs by Western blot analysis; format: cell-based
T3 sequence (whole entry): T2 sequence (P30307 whole entry)

A-431 [16] = assay: Induction of apoptosis in human A431 cells assessed as caspase-3 cleavage at 50 uM after 24 hrs by Western blot analysis; format: functional, cell-based
[17] = target: T4, M-phase inducer phosphatase 2 (Homo sapiens, UniProt P30305); assay: Inhibition of recombinant human GST-tagged truncated CDC25B expressed in bacterial expression system using 3-O-methylfluorescein phosphate as substrate after 2 hrs by fluorimetric analysis
T4 sequence (P30305 whole entry): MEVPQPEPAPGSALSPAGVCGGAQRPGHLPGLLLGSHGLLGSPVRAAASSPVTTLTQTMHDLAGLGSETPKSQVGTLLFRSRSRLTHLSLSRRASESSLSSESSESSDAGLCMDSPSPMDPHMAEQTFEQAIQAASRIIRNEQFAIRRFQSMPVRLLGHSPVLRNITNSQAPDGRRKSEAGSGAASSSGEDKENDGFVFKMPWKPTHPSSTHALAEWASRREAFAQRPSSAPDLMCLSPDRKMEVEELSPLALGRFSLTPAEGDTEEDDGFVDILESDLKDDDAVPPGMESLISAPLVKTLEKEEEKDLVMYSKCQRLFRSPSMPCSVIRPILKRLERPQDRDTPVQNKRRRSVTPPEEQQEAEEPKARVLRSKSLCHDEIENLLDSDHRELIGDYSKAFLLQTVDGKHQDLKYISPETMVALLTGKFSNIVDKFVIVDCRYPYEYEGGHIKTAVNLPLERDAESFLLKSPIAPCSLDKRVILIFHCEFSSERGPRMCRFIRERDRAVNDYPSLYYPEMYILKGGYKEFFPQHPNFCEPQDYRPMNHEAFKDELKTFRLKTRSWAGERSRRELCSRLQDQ

[18] = target: T3, M-phase inducer phosphatase 3 (Homo sapiens); settings: 10 to 50 uM
Description: Inhibition of CDC25C in human A431 cells assessed as increase in CDK-mediated phosphorylation of histone H3 at Ser10 residues at 10 to 50 uM after 24 hrs by Western blot analysis

A-431 [19] = assay: Induction of apoptosis in human A431 cells assessed as PARP cleavage at 50 uM after 24 hrs by Western blot analysis; format: functional, cell-based
A-431 [20] = assay: Induction of apoptosis in human A431 cells assessed as caspase-3 cleavage at 10 to 50 uM after 24 hrs by Western blot analysis; format: functional, cell-based
[21] = Potency index, ratio of NSC95397 IC50 to compound IC50 against human U373n cells; format: functional
A-431 [22] = assay: Cytotoxicity against human A431 cells assessed as reduction in cell viability at 10 uM after 24 hrs by MTT assay; format: functional
A-431 [23] = assay: Cytotoxicity against human A431 cells assessed as cell viability at 10 uM after 48 hrs by MTT assay; format: functional; settings: A-431, 48 h, read-out: Activity
A-431 [24] = assay: Growth inhibition of human A431 cells at 10 uM by trypan blue dye based assay; format: functional, cell-based; settings: TDE = time-dependent effect
[25] = target: T3, M-phase inducer phosphatase 3 (Homo sapiens); assay: Inhibition of CDC25C in human A431 cells assessed as increase in CDK-mediated phosphorylation of histone H3 at Ser10 residues at 10 uM after 24 hrs by Western blot analysis; format: cell-based
[26] = target: T3, M-phase inducer phosphatase 3 (Homo sapiens); assay: Inhibition of CDC25C in human A431 cells assessed as decrease in CDK-mediated phosphorylation of histone H3 at Ser10 residues at 50 uM after 24 hrs by Western blot analysis; format: cell-based
A-431 [27] = assay: Cell cycle arrest in human A431 cells after 24 hrs by propidium iodide staining based flow cytometric analysis; format: functional
A-431 [28] = assay: Induction of apoptosis in human A431 cells assessed as PARP cleavage at 10 uM after 24 hrs by Western blot analysis; format: functional, cell-based
A-431 [29] = assay: Induction of apoptosis in human A431 cells assessed as caspase-3 cleavage at 10 uM after 24 hrs by Western blot analysis; format: functional, cell-based

Row | Structure (SMILES) | Activity (A-431 [1]) | IC50 [2] | IC50 [3] | IC50 (A549) | IC50 (MCF7) | IC50 (PC-3) | IC50 [4] | IC50 (Hs 683) | IC50 (SK-MEL-28) | IC50 (A-431 [5]) | Activity (A-431 [6]) | Activity (A-431 [7]) | Activity (A-431 [8]) | Activity (A-431 [9]) | Activity (A-431 [10]) | Activity (A-431 [11]) | Activity (A-431 [12]) | Activity (A-431 [13]) | Activity (A-431 [14]) | inhibition [15] | further results
1 | O=C1C=CC(=O)c2c1ccc1c2c(=O)oc2ccccc21 | Active | 5.8 µM | 2.3 µM | 26 µM | 16 µM | 32 µM | 18 µM | 20 µM | 29 µM | 16 µM | 45.05% | 42.38% | 18.71% | 11.39% | 29.39% | 29.72% | 6.85% | 16.51% | Active | Active | Activity (A-431 [16]): Active; IC50 [17]: 14.4 µM; inhibition [18]: Active
2 | O=C1C=CC(=O)c2c1ccc1c2c(=O)oc2cc(Cl)ccc21 | inactive | 1.61 µM | 0.77 µM | 3.2 µM | 2.8 µM | 4.4 µM | 3.7 µM | 1.2 µM | 7.8 µM | 29.2 µM | 48.91% | 53.78% | 18.57% | 16.24% | 28.92% | 25.91% | 3.6% | 4.07% | inactive |  | Activity (A-431 [19]): inactive; Activity (A-431 [20]): inactive
3 | O=C1C=CC(=O)c2c1ccc1c2c(=O)[nH]c2ccc(Cl)cc21 | Active | 4.33 µM | 5.72 µM | 0.3 µM | 1.2 µM | 0.3 µM | 0.1 µM | 0.2 µM | 0.3 µM | 3.13 µM | 44.5% | 31.53% | 13.39% | 7.07% | 26.65% | 27.78% | 15.46% | 33.63% | Active | inactive | Ratio IC50 [21]: 18.5; Activity (A-431 [22]): >60%; viability at 10 µM (A-431 [23]): 10%; growth inhibition (GI) (A-431 [24]): Tde; inhibition [25]: Active; inhibition [26]: inactive; Activity (A-431 [27]): Dose-dependent effect; Activity (A-431 [28]): Active; Activity (A-431 [29]): Active
